In brackets after ≈: the same amount, converted by molar mass. Activity calls are given as the source filed them. No cut-off for these calls is given here.
Key:
HepG2 = assay: Cytotoxicity against human HepG2 cells assessed as reduction in cell viability after 72 hrs by sulforhodamine B assay; format: cell-based; conditions: HepG2, 72 h
HUVEC = assay: Cytotoxicity against HUVEC assessed as reduction in cell viability after 72 hrs by sulforhodamine B assay; format: cell-based; conditions: Homo sapiens
Staphylococcus aureus [1] = assay: Antibacterial activity against wild type methicillin-sensitive Staphylococcus aureus ATCC 29213 assessed as inhibition of bacterial growth incubated for 18 to 24 hrs by broth microdilution method; format: functional; conditions: time 18-24 hrs
Staphylococcus aureus [2] = assay: Antibacterial activity against methicillin-resistant Staphylococcus aureus clinical isolate 15-1 assessed as inhibition of bacterial growth incubated for 18 to 24 hrs by broth microdilution method; format: functional; conditions: time 18-24 hrs
Staphylococcus aureus [3] = assay: Antibacterial activity against methicillin-resistant Staphylococcus aureus clinical isolate 15-2 assessed as inhibition of bacterial growth incubated for 18 to 24 hrs by broth microdilution method; format: functional; conditions: time 18-24 hrs
Staphylococcus aureus [4] = assay: Antibacterial activity against methicillin-resistant Staphylococcus aureus clinical isolate 15-3 assessed as inhibition of bacterial growth incubated for 18 to 24 hrs by broth microdilution method; format: functional; conditions: time 18-24 hrs
Staphylococcus aureus [5] = assay: Antibacterial activity against methicillin-resistant Staphylococcus aureus clinical isolate 15-6 assessed as inhibition of bacterial growth incubated for 18 to 24 hrs by broth microdilution method; format: functional; conditions: time 18-24 hrs
Staphylococcus aureus [6] = assay: Antibacterial activity against methicillin-resistant Staphylococcus aureus clinical isolate 15-7 assessed as inhibition of bacterial growth incubated for 18 to 24 hrs by broth microdilution method; format: functional; conditions: time 18-24 hrs
Staphylococcus aureus [7] = assay: Antibacterial activity against methicillin-resistant Staphylococcus aureus clinical isolate 15-8 assessed as inhibition of bacterial growth incubated for 18 to 24 hrs by broth microdilution method; format: functional; conditions: time 18-24 hrs
Staphylococcus aureus [8] = assay: Antibacterial activity against methicillin-resistant Staphylococcus aureus clinical isolate 15-9 assessed as inhibition of bacterial growth incubated for 18 to 24 hrs by broth microdilution method; format: functional; conditions: time 18-24 hrs
Staphylococcus aureus [9] = assay: Antibacterial activity against methicillin resistant and vancomycin-intermediate sensitive Staphylococcus aureus ATCC 700699 assessed as inhibition of bacterial growth incubated for 18 to 24 hrs by broth microdilution method; format: functional; conditions: time 18-24 hrs
Staphylococcus aureus [10] = assay: Antibacterial activity against methicillin resistant and vancomycin-intermediate sensitive Staphylococcus aureus ATCC 700788 assessed as inhibition of bacterial growth incubated for 18 to 24 hrs by broth microdilution method; format: functional; conditions: time 18-24 hrs
[11] = system: Staphylococcus epidermidis; assay: Antibacterial activity against methicillin-sensitive Staphylococcus epidermidis clinical isolate 15-3 assessed as inhibition of bacterial growth incubated for 18 to 24 hrs by broth microdilution method; format: functional; conditions: time 18-24 hrs
[12] = system: Staphylococcus epidermidis; assay: Antibacterial activity against methicillin-sensitive Staphylococcus epidermidis clinical isolate 15-4 assessed as inhibition of bacterial growth incubated for 18 to 24 hrs by broth microdilution method; format: functional; conditions: time 18-24 hrs
[13] = system: Staphylococcus epidermidis; assay: Antibacterial activity against methicillin-resistant Staphylococcus epidermidis clinical isolate 15-1 assessed as inhibition of bacterial growth incubated for 18 to 24 hrs by broth microdilution method; format: functional; conditions: time 18-24 hrs
[14] = system: Staphylococcus epidermidis; assay: Antibacterial activity against methicillin-resistant Staphylococcus epidermidis clinical isolate 15-2 assessed as inhibition of bacterial growth incubated for 18 to 24 hrs by broth microdilution method; format: functional; conditions: time 18-24 hrs
[15] = system: Staphylococcus epidermidis; assay: Antibacterial activity against methicillin-resistant Staphylococcus epidermidis clinical isolate 15-3 assessed as inhibition of bacterial growth incubated for 18 to 24 hrs by broth microdilution method; format: functional; conditions: time 18-24 hrs
Enterococcus faecalis [16] = assay: Antibacterial activity against Enterococcus faecalis clinical isolate 15-1 assessed as inhibition of bacterial growth incubated for 18 to 24 hrs by broth microdilution method; format: functional; conditions: time 18-24 hrs
Enterococcus faecalis [17] = assay: Antibacterial activity against Enterococcus faecalis clinical isolate 15-2 assessed as inhibition of bacterial growth incubated for 18 to 24 hrs by broth microdilution method; format: functional; conditions: time 18-24 hrs
Enterococcus faecium [18] = assay: Antibacterial activity against Enterococcus faecium clinical isolate 15-1 assessed as inhibition of bacterial growth incubated for 18 to 24 hrs by broth microdilution method; format: functional; conditions: time 18-24 hrs
Enterococcus faecium [19] = assay: Antibacterial activity against Enterococcus faecium clinical isolate 15-2 assessed as inhibition of bacterial growth incubated for 18 to 24 hrs by broth microdilution method; format: functional; conditions: time 18-24 hrs
Enterococcus faecalis [20] = assay: Antibacterial activity against vancomycin-resistant Enterococcus faecalis ATCC 51299 assessed as inhibition of bacterial growth incubated for 18 to 24 hrs by broth microdilution method; format: functional; conditions: time 18-24 hrs
Enterococcus faecalis [21] = assay: Antibacterial activity against vancomycin-resistant Enterococcus faecalis ATCC 700802 assessed as inhibition of bacterial growth incubated for 18 to 24 hrs by broth microdilution method; format: functional; conditions: time 18-24 hrs
Enterococcus faecalis [22] = assay: Antibacterial activity against vancomycin-resistant Enterococcus faecalis ATCC 51575 assessed as inhibition of bacterial growth incubated for 18 to 24 hrs by broth microdilution method; format: functional; conditions: time 18-24 hrs
[23] = Selectivity index, ratio of IC50 for human HepG2 cells to MIC for methicillin-resistant Staphylococcus aureus; format: toxicity
[24] = Selectivity index, ratio of IC50 for human HUVEC cells to MIC for methicillin-resistant Staphylococcus aureus; format: toxicity
[25] = Inhibition of Staphylococcus aureus Gyrase B using linear pBR322 DNA as substrate incubated for 30 mins in presence of ATP by ADP-Glo assay
Staphylococcus aureus [26] = assay: (§1) In vivo antibacterial activity against methicillin resistant Staphylococcus aureus clinical isolate 15-1 infected in kunming mouse assessed as animal survival rate at 9 mg/kg, po administered 6 hrs prior to bacterial infection and at 0 and 6 hrs post infection and measured for 7 days (reference value: 12.5 %); format: functional; conditions: time 7.0 day
Staphylococcus aureus [27] = assay: as §1, with “3” for “9”; format: functional; conditions: time 7.0 day
[28] = Selectivity index, ratio of TC50 for CHOK1 cells to MIC for Staphylococcus aureus ATCC 25923; format: toxicity; conditions: hamster

| SMILES | IC50 (HepG2) [nM] | IC50 (HUVEC) [nM] | MIC (Staphylococcus aureus [1]) [µg/mL] | MIC (Staphylococcus aureus [2]) [µg/mL] | MIC (Staphylococcus aureus [3]) [µg/mL] | MIC (Staphylococcus aureus [4]) [µg/mL] | MIC (Staphylococcus aureus [5]) [µg/mL] | MIC (Staphylococcus aureus [6]) [µg/mL] | MIC (Staphylococcus aureus [7]) [µg/mL] | MIC (Staphylococcus aureus [8]) [µg/mL] | MIC (Staphylococcus aureus [9]) [µg/mL] | MIC (Staphylococcus aureus [10]) [µg/mL] | MIC [11] [µg/mL] | MIC [12] [µg/mL] | MIC [13] [µg/mL] | MIC [14] [µg/mL] | MIC [15] [µg/mL] | MIC (Enterococcus faecalis [16]) [µg/mL] | MIC (Enterococcus faecalis [17]) [µg/mL] | MIC (Enterococcus faecium [18]) [µg/mL] | also measured |
| --- | --- | --- | --- | --- | --- | --- | --- | --- | --- | --- | --- | --- | --- | --- | --- | --- | --- | --- | --- | --- | --- |
| CC(=O)O[C@H]1C(=O)[C@@]2(C)[C@H]([C@H](OC(=O)c3ccccc3)[C@]3(O)C[C@H](OC(=O)[C@H](O)[C@@H](NC(=O)c4ccccc4)c4ccccc4)C(C)=C1C3(C)C)[C@]1(OC(C)=O)CO[C@@H]1C[C@@H]2O [PACLITAXEL] | 9 | 1.3 | – | – | – | – | – | – | – | – | – | – | – | – | – | – | – | – | – | – | – |
| CCCCCc1nnc(NC(=O)c2c(O)c3ccccc3n(CC)c2=O)s1 | 52100 | 41900 | 0.1 (≈ 0.259 µM) | 0.5 (≈ 1.29 µM) | 1 (≈ 2.59 µM) | 0.5 (≈ 1.29 µM) | 0.5 (≈ 1.29 µM) | 0.5 (≈ 1.29 µM) | 0.5 (≈ 1.29 µM) | 1 (≈ 2.59 µM) | 1 (≈ 2.59 µM) | 1 (≈ 2.59 µM) | 1 (≈ 2.59 µM) | 1 (≈ 2.59 µM) | 1 (≈ 2.59 µM) | 1 (≈ 2.59 µM) | 1 (≈ 2.59 µM) | 2 (≈ 5.17 µM) | 1 (≈ 2.59 µM) | 1 (≈ 2.59 µM) | MIC (Enterococcus faecium [19]): 1 µg/mL (≈ 2.59 µM); MIC (Enterococcus faecalis [20]): 1 µg/mL (≈ 2.59 µM); MIC (Enterococcus faecalis [21]): 1 µg/mL (≈ 2.59 µM); MIC (Enterococcus faecalis [22]): 1 µg/mL (≈ 2.59 µM); selectivity ratio [23]: 52.1; selectivity ratio [24]: 41.9; IC50 [25]: 470 nM |
| CC(=O)NC[C@H]1CN(c2ccc(N3CCOCC3)c(F)c2)C(=O)O1 | – | – | – | – | – | – | – | – | – | – | – | – | – | – | – | – | – | – | – | – | Activity (Staphylococcus aureus [26]): Active; Activity (Staphylococcus aureus [27]): Active |
| CCc1nnc(NC(=O)c2c(O)c3ccccc3n(C)c2=O)s1 | – | – | 1.56 (≈ 4.72 µM) | 2 (≈ 6.05 µM) | 4 (≈ 12.1 µM) | 2 (≈ 6.05 µM) | 4 (≈ 12.1 µM) | 4 (≈ 12.1 µM) | 4 (≈ 12.1 µM) | 4 (≈ 12.1 µM) | 4 (≈ 12.1 µM) | 4 (≈ 12.1 µM) | 4 (≈ 12.1 µM) | 2 (≈ 6.05 µM) | 4 (≈ 12.1 µM) | 4 (≈ 12.1 µM) | 4 (≈ 12.1 µM) | 4 (≈ 12.1 µM) | 4 (≈ 12.1 µM) | 4 (≈ 12.1 µM) | MIC (Enterococcus faecium [19]): 4 µg/mL (≈ 12.1 µM); MIC (Enterococcus faecalis [20]): 32 µg/mL (≈ 96.9 µM); MIC (Enterococcus faecalis [21]): 32 µg/mL (≈ 96.9 µM); MIC (Enterococcus faecalis [22]): 32 µg/mL (≈ 96.9 µM); IC50 [25]: 100 nM; selectivity ratio [28]: 20.7 |
